{"source": "ChEMBL document CHEMBL4354877", "about": "“MymA Bioactivated Thioalkylbenzoxazole Prodrug Family Active against Mycobacterium tuberculosis” (J Med Chem, 2020)", "type_in_all_cases": "functional", "key": {"[1]": {"system": "Mycobacterium tuberculosis", "assay": "Antimycobacterial activity against Mycobacterium tuberculosis 2-RM1 expressing ethA frameshift mutant assessed as inhibition of microbial growth incubated for 6 days by alamar blue resazurin assay"}, "[2]": {"system": "Mycobacterium tuberculosis", "assay": "Antimycobacterial activity against Mycobacterium tuberculosis SG2 expressing ethA and mymA mutant assessed as inhibition of microbial growth incubated for 6 days by alamar blue resazurin assay"}, "[3]": {"system": "Mycobacterium tuberculosis", "assay": "Antimycobacterial activity against Mycobacterium tuberculosis Rv3083::Tn expressing mymA mutant assessed as inhibition of microbial growth incubated for 6 days by alamar blue resazurin assay"}, "[4]": {"system": "Mycobacterium tuberculosis", "assay": "Antimycobacterial activity against Mycobacterium tuberculosis 3-RM1 expressing mymA mutant assessed as inhibition of microbial growth incubated for 6 days by alamar blue resazurin assay"}}}
{"smiles": "O=C(CCSc1nc2cc(Cl)ccc2o1)N1CCCC1", "values": [{"measurement": "MIC", "setting": "[1]", "value": 10, "unit": "µM"}, {"measurement": "MIC", "setting": "[2]", "value": 80, "unit": "µM"}, {"measurement": "MIC", "setting": "[3]", "value": 40, "unit": "µM"}, {"measurement": "MIC", "setting": "[4]", "value": 40, "unit": "µM"}]}
